# Laboratory results: patent publication US20070249620A1, “Urea Derivative” (priority 2004, published 2007)
# Legend:
# mouse DGAT1 = biological target: T1, mouse DGAT1 (Mus musculus, UniProt Q9Z2A7); experiment: DGAT1 inhibitory effect test (microsome fraction, [14C]-oleoyl-CoA, triglyceride radioactivity by TLC); assay type: biochemical; details: 0.5 h; concentration of the test compound 0.1 μg/ml; mouse DGAT1 microsomes, 23° C., 30 minutes; read-out: Inhibitory ratio
# T1 construct: made in house; host or cells: insect cells (High Five, Sf9, Sf21, etc.), baculovirus expression system (Invitrogen)
# T1 sequence (Q9Z2A7 1-498): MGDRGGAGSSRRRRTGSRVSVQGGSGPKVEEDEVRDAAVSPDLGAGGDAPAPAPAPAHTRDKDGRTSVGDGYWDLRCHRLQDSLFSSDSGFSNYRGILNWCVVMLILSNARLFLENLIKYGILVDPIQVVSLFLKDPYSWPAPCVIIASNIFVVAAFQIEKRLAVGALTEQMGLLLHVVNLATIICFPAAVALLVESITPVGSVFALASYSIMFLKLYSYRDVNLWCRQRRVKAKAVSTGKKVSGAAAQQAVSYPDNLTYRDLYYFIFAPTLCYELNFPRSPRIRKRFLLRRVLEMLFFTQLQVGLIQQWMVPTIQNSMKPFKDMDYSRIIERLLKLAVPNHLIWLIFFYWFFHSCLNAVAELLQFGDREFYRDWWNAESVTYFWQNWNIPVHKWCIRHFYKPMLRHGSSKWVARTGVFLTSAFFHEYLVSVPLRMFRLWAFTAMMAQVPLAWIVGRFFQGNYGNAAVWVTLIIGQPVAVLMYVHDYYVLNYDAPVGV
# How it was run: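 Inhibition was scored from radiolabelled triglyceride separated by TLC, relative to vehicle and net of a 0-min background. The reaction ran for 30 min at room temperature (23 °C) in Tris-HCl pH 8.0 with MgCl2, BSA and Triton X-100. Substrates were 30 μM [14C]-oleoyl-CoA and 0.5 mM dioleoylglycerol, with mouse DGAT1 microsomes from baculovirus-infected insect cells as enzyme.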
SMILES,inhibition at 0.1 µg/mL (mouse DGAT1) [%],melting point
"COc1ccccc1NC(=O)Nc1ccc(C2=CCN(C(=O)Nc3ccc(OCC(O)CO)cc3Cl)CC2)cc1 (centres unmarked) [Example 286, 4-{4-[3-(2-methoxy-phenyl)-ureido]-phenyl}-3,6-dihydro-2H-pyridine-1-carboxylic acid [2-chloro-4-(2,3-dihydroxy-propoxy)-phenyl]-amide]",≥ 50,103 to 107 °C
"COc1cc(NC(=O)Nc2ccc(C3=CCN(C(=O)Nc4ccc(OCC(O)CO)cc4Cl)CC3)cc2)cc(OC)c1 (centres unmarked) [Example 287, 4-{4-[3-(3,5-dimethoxy-phenyl)-ureido]-phenyl}-3,6-dihydro-2H-pyridine-1-carboxylic acid [2-chloro-4-(2,3-dihydroxy-propoxy)-phenyl]-amide]",≥ 50,108 to 111 °C
"COc1ccccc1NC(=O)Nc1ccc(C2CCN(C(=O)Nc3ccc(OCC(O)CO)cc3Cl)CC2)cc1 (centres unmarked) [Example 288, 4-{4-[3-(2-methoxy-phenyl)-ureido]-phenyl}-piperidine-1-carboxylic acid [2-chloro-4-(2,3-dihydroxy-propoxy)-phenyl]-amide]",≥ 50,158 to 161 °C
"COc1cc(NC(=O)Nc2ccc(C3CCN(C(=O)Nc4ccc(OCC(O)CO)cc4Cl)CC3)cc2)cc(OC)c1 (centres unmarked) [Example 289, 4-{4-[3-(3,5-dimethoxy-phenyl)-ureido]-phenyl}-piperidine-1-carboxylic acid [2-chloro-4-(2,3-dihydroxy-propoxy)-phenyl]-amide]",≥ 50,105 to 108 °C
"O=C(Nc1ccc2c(c1)CCN(C(=O)Nc1ccc(OCC(O)CO)cc1Cl)C2)Nc1ccccc1F (centres unmarked) [Example 290, 6-[3-(2-fluoro-phenyl)-ureido]-3,4-dihydro-1H-isoquinoline-2-carboxylic acid [2-chloro-4-(2,3-dihydroxy-propoxy)-phenyl]-amide]",≥ 50,164 to 167 °C
"CCOc1cccc(NC(=O)Nc2ccc3c(c2)CCN(C(=O)Nc2ccc(OCC(O)CO)cc2Cl)C3)c1 (centres unmarked) [Example 291, 6-[3-(3-ethoxy-phenyl)-ureido]-3,4-dihydro-1H-isoquinoline-2-carboxylic acid [2-chloro-4-(2,3-dihydroxy-propoxy)-phenyl]-amide]",≥ 50,134 to 139 °C
"O=C(Nc1ccc(C2CCN(C(=O)Nc3ccc(OCC(O)CO)cc3Cl)CC2)cc1)Nc1ccccc1F (centres unmarked) [Example 292, 4-{4-[3-(2-fluoro-phenyl)-ureido]-phenyl}-piperidine-1-carboxylic acid [2-chloro-4-(2,3-dihydroxy-propoxy)-phenyl]-amide]",≥ 50,170 to 175 °C
"COc1ccc(C)cc1NC(=O)Nc1ccc2c(c1)CCN(C(=O)Nc1ccc(OCC(O)CO)cc1C(F)(F)F)C2 (centres unmarked) [Example 293, 6-[3-(2-methoxy-5-methyl-phenyl)-ureido]-3,4-dihydro-1H-isoquinoline-2-carboxylic acid [4-(2,3-dihydroxy-propoxy)-2-trifluoromethyl-phenyl]-amide]",≥ 50,174 to 176 °C
"COc1ccc(C)cc1NC(=O)Nc1ccc(N2CCN(C(=O)Nc3ncccc3C)CC2)cc1 [Example 294, 4-{4-[3-(2-methoxy-5-methyl-phenyl)-ureido]-phenyl}-piperazine-1-carboxylic acid (3-methyl-pyridin-2-yl)-amide]",≥ 50,209 to 211 °C
"Cc1cccnc1NC(=O)N1CCN(c2ccc(NC(=O)Nc3ccccc3F)cc2)CC1 [Example 295, 4-{4-[3-(2-fluoro-phenyl)-ureido]-phenyl}-piperazine-1-carboxylic acid (3-methyl-pyridin-2-yl)-amide]",≥ 50,> 250 °C (dec.)
"COc1ccc(F)cc1NC(=O)Nc1ccc(N2CCN(C(=O)Nc3ncccc3C)CC2)cc1 [Example 296, 4-{4-[3-(5-fluoro-2-methoxy-phenyl)-ureido]-phenyl}-piperazine-1-carboxylic acid (3-methyl-pyridin-2-yl)-amide]",≥ 50,206 to 208 °C
"COc1ccc(F)cc1NC(=O)Nc1ccc(N2CCN(C(=O)Nc3ncccc3C)CC2)nc1 [Example 298, 4-{5-[3-(5-fluoro-2-methoxy-phenyl)-ureido]-pyridin-2-yl}-piperazine-1-carboxylic acid (3-methyl-pyridin-2-yl)-amide]",≥ 50,196 to 198 °C
"CCOc1ccc(Cl)cc1NC(=O)Nc1ccc(N2CCN(C(=O)Nc3ncccc3C)CC2)nc1 [Example 299, 4-{5-[3-(5-chloro-2-ethoxy-phenyl)-ureido]-pyridin-2-yl}-piperazine-1-carboxylic acid (3-methyl-pyridin-2-yl)-amide]",≥ 50,214 to 215 °C
"CCOc1ccc(F)cc1NC(=O)Nc1ccc(N2CCN(C(=O)Nc3ncccc3C)CC2)nc1 [Example 300, 4-{5-[3-(2-ethoxy-5-fluoro-phenyl)-ureido]-pyridin-2-yl}-piperazine-1-carboxylic acid (3-methyl-pyridin-2-yl)-amide]",≥ 50,180 to 185 °C
"COc1ccc(C)cc1NC(=O)Nc1ccc(N2CCN(C(=O)Nc3ncccc3C)CC2)nc1 [Example 301, 4-{5-[3-(2-methoxy-5-methyl-phenyl)-ureido]-pyridin-2-yl}-piperazine-1-carboxylic acid (3-methyl-pyridin-2-yl)-amide]",≥ 50,216 to 218 °C
"Cc1cccnc1NC(=O)N1CCN(c2ccc(NC(=O)Nc3ccccc3F)cn2)CC1 [Example 302, 4-{5-[3-(2-fluoro-phenyl)-ureido]-pyridin-2-yl}-piperazine-1-carboxylic acid (3-methyl-pyridin-2-yl)-amide]",≥ 50,213 to 215 °C
"COc1cccc(NC(=O)Nc2ccc(N3CCN(C(=O)Nc4ncccc4C)CC3)cc2)c1 [Example 303, 4-{4-[3-(3-methoxy-phenyl)-ureido]-phenyl}-piperazine-1-carboxylic acid (3-methyl-pyridin-2-yl)-amide]",≥ 50,191 to 193 °C
"CCOc1ccccc1NC(=O)Nc1ccc(N2CCN(C(=O)Nc3ncccc3C)CC2)cc1 [Example 304, 4-{4-[3-(2-ethoxy-phenyl)-ureido]-phenyl}-piperazine-1-carboxylic acid (3-methyl-pyridin-2-yl)-amide]",≥ 50,110 to 112 °C
"CCOc1cccc(NC(=O)Nc2ccc(N3CCN(C(=O)Nc4ncccc4C)CC3)cc2)c1 [Example 305, 4-{4-[3-(3-ethoxy-phenyl)-ureido]-phenyl}-piperazine-1-carboxylic acid (3-methyl-pyridin-2-yl)-amide]",≥ 50,171 to 173 °C
"COc1cc(NC(=O)Nc2ccc(N3CCN(C(=O)Nc4ncccc4C)CC3)cc2)cc(OC)c1 [Example 306, 4-{4-[3-(3,5-dimethoxy-phenyl)-ureido]-phenyl}-piperazine-1-carboxylic acid (3-methyl-pyridin-2-yl)-amide]",≥ 50,188 to 190 °C
"CCOc1ccc(C)cc1NC(=O)Nc1ccc(N2CCN(C(=O)Nc3ncccc3C)CC2)nc1 [Example 307, 4-{5-[3-(2-ethoxy-5-methyl-phenyl)-ureido]-pyridin-2-yl}-piperazine-1-carboxylic acid (3-methyl-pyridin-2-yl)-amide]",≥ 50,198 to 200 °C
"COc1ccc(Cl)cc1NC(=O)Nc1ccc(N2CCN(C(=O)Nc3ncccc3C)CC2)nc1 [Example 308, 4-{5-[3-(5-chloro-2-methoxy-phenyl)-ureido]-pyridin-2-yl}-piperazine-1-carboxylic acid (3-methyl-pyridin-2-yl)-amide]",≥ 50,203 to 205 °C
"COc1ccccc1NC(=O)Nc1ccc(N2CCN(C(=O)Nc3ncccc3C)CC2)cc1 [Example 309, 4-{4-[3-(2-methoxy-phenyl)-ureido]-phenyl}-piperazine-1-carboxylic acid (3-methyl-pyridin-2-yl)-amide]",≥ 50,207 to 209 °C
"COc1ccc(Cl)cc1NC(=O)Nc1ccc(N2CCN(C(=O)Nc3ncccc3C)CC2)cc1 [Example 310, 4-{4-[3-(5-chloro-2-methoxy-phenyl)-ureido]-phenyl}-piperazine-1-carboxylic acid (3-methyl-pyridin-2-yl)-amide]",≥ 50,163 to 165 °C
"CCOc1ccc(C)cc1NC(=O)Nc1ccc(N2CCN(C(=O)Nc3ncccc3C)CC2)cc1 [Example 311, 4-{4-[3-(2-ethoxy-5-methyl-phenyl)-ureido]-phenyl}-piperazine-1-carboxylic acid (3-methyl-pyridin-2-yl)-amide]",≥ 50,206 to 208 °C
